Measurements from patent US10918647B2, “Selective bromodomain inhibition of fungal Bdf1” (University of Southern California, priority 2016, dated 2021).

How the values were obtained:
CaBdf1 BD2 [1] = molecular target: T1, CaBdf1 BD2 (Candida albicans, UniProt Q5A4W8); test: HTRF inhibition assay of BD binding to H4ac4 peptide; settings: for inhibition of CaBdf1 BD2: HTRF
T1 sequence (Q5A4W8 383-492 limits assumed): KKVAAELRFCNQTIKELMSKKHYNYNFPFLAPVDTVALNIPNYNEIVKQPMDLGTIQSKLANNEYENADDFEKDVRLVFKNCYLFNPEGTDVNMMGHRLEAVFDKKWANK
Description: (§1) FIG. 7. Homogeneous time-resolved fluorescence (HTRF) assay. a. Assay configuration. A biotinylated tetra-acetylated histone peptide is bound to streptavidin beads which are coupled to a terbium-based donor fluorophore, lumi-Tb cryptate. GST-tagged bromodomain is bound by an anti-GST antibody coupled to the acceptor fluorophore, an organic molecule termed D2. Peptide binding by the bromodomain brings the donor and acceptor within FRET distance. In this situation, excitation of the donor at 337 nm causes energy transfer to the […], whose emitted fluorescence is monitored at 665 nm in a time-resolved manner so as to eliminate transient background fluorescence. b-d. Binding of biotinylated tetra-acetylated H4 (H4ac4) peptide by the BD1 bromodomains from human Brd4 (b), S. cerevisiae Bdf1 (c) and C. albicans Bdf1 (d) as measured by an increase in HTRF signal with increasing peptide concentration.
(§2) A key consideration in establishing fungal BET BD inhibition as a feasible chemotherapeutic strategy is whether these domains can be targeted by small-molecule inhibitors without antagonizing human BET function. To probe the similarity between the ligand binding pockets of C. albicans and human BET BDs, we asked whether human BET inhibitors could inhibit CaBdf1 BDs.

CaBdf1 BD2 [2] = molecular target: T1, CaBdf1 BD2; test: Isothermal titration calorimetry (ITC); type: binding, C. albicans
CaBdf1 BD1 [3] = molecular target: T2, CaBdf1 BD1 (Candida albicans, UniProt Q5A4W8); test: HTRF inhibition assay of BD binding to H4ac4 peptide
T2 sequence (Q5A4W8 206-315 limits assumed): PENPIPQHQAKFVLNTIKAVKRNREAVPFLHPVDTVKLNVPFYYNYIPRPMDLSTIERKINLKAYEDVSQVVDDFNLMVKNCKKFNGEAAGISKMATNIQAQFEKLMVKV
Description: as §1, with “b-d.” for “b-d. Binding of biotinylated tetra-acetylated H4 (H4ac4) peptide by the BD1 bromodomains from human Brd4 (b), S. cerevisiae Bdf1 (c) and C. albicans Bdf1 (d) as measured by an increase in HTRF signal with increasing peptide concentration.”
as §2

C. albicans = test: Growth of C. albicans in vitro (liquid culture growth assay); type: cell-based
Description: FIG. 8. CaBdf1 BDs are insensitive to human BET inhibitors. (a) HTRF inhibition assays performed on BD1 and BD2 from CaBdf1 and human Brd4 to evaluate the effects of four human BET inhibitors. Inhibition curves are shown as closed (BD1) and open (BD2) circles in green (Brd4) and magenta (Bdf1). IC50 values are summarized below each graph. (b) Thermal stability of the indicated BET BDs in the presence and absence of BET inhibitors determined by differential scanning fluorimetry. The thermal shift (ΔTm) for each inhibitor is indicated. Curves obtained in the presence (thick lines) or absence (thin lines) are plotted for CaBDF1 BD1 (solid magenta), CaBDF1 BD2 (dashed magenta) and human Brd4 (green). […] Experiments have been performed in the presence of doxycycline, which represses the pTetO-BDF1 allele.
FIG. 13. Identification of a CaBdf1-BD1 inhibitor that phenocopies BD1 inactivation. (a) Chemical structure of dibenzothiazepinone compound MS5. (b) HTRF assay showing that MS5 inhibits CaBdf1-BD1 preferentially over CaBdf1-BD2 and with weak selectivity compared to hBrd4-BD1. (c) ITC experiment showing binding of MS5 towards the indicated BD. (d) Effect of MS5 on the growth of C. albicans. The first allele is indicated below the graph, the second is pMET-BDF1 (top) orpTetO-BDF1 (bottom). Strains were grown in the presence of doxycycline or methionine/cysteine, respectively, to repress expression from the second allele. MS5 compromises growth when CaBdf1-BD2 is inactivated by deletion or point-mutation. Statistical test is a two-sided paired t-test performed on ≥5 biological replicates (*p=0.01 to 0.05; **p=0.001 to 0.01; ***p<0.001). (e) Dose-response experiment showing the effect of MS5 on Bdf1 mutant strains.
We next tested the effect of the identified hit compounds on the growth of C. albicans in vitro. […] We therefore tested compounds that inhibited CaBdf1-BD1 with micromolar IC50 values but which were unselective or only weakly selective for the fungal BD.

CaBdf1 BD1 [4] = molecular target: T2, CaBdf1 BD1; test: Isothermal titration calorimetry (ITC); type: binding, C. albicans
Brd4 BD1 = Brd4 BD1 (Homo sapiens, UniProt O60885); test: Isothermal titration calorimetry (ITC); type: binding

## CCOC(=O)Nc1cc(-c2ccc(C)c(NS(C)(=O)=O)c2)nn2c(C)nnc12 [bromosporine, reference compound]
CaBdf1 BD2 [1]
  IC50: ~300 nM

## Cc1ccc(Nc2c(-c3ccc(O)cc3)nc3c(C)cccn23)cc1 [MS51, 4-(8-Methyl-3-(p-tolylamino)imidazo[1,2-a]pyridin-2-yl)phenol]
CaBdf1 BD2 [1]
  selectivity relative to BD1 of either CaBdf1 or human Brd4: high selectivity
CaBdf1 BD2 [2]; HTRF and ITC assays, read-out: affinity
  Kd: 1000 to 2000 nM

## COc1cc2c(cc1-c1c(C)noc1C)ncc1[nH]c(=O)n([C@H](C)c3ccccn3)c12 [IBET-151, reference compound]
CaBdf1 BD1 [3]; CaBdf1 BD1 vs corresponding Brd4 BD
  reduction in sensitivity relative to Brd4: 60 fold
CaBdf1 BD1 [3]; HTRF, strongest inhibition
  IC50: ~300 nM
C. albicans; even when Bdf1 bromodomains are deleted, in the presence of doxycycline (represses pTetO-BDF1 allele)
  effect on C. albicans growth: do not affect
C. albicans
  effect on the growth of C. albicans in vitro: none of the BET inhibitors had any significant effect

## Cc1sc2c(c1C)C(c1ccc(Cl)cc1)=N[C@@H](CC(=O)OC(C)(C)C)c1nnc(C)n1-2 [JQ1, reference compound]
CaBdf1 BD1 [4]; ITC
  binding (ITC): no binding was detected
CaBdf1 BD2 [2]; ITC
  binding (ITC): no binding was detected

## O=C1c2ccccc2Sc2cc(-c3noc(-c4cnccn4)n3)ccc2N1C1CC1 [MS4]
CaBdf1 BD2 [1]
  inhibition of CaBdf1 BD2: only modest inhibition
Brd4 BD1
  binding (ITC): no significant binding was detected
C. albicans
  effect on the growth of C. albicans in vitro: little effect

## CN1C(=O)c2ccccc2Sc2cc(NC(=O)C3CCCO3)ccc21 (centres unmarked) [MS5, N-(10-methyl-11-oxo-10,11-dihydrodibenzo[b,f][1,4]thiazepin-7-yl)tetrahydrofuran-2-carboxamide]
CaBdf1 BD2 [1]
  inhibition of CaBdf1 BD2: only a weak inhibitory effect
CaBdf1 BD1 [4]; ITC (MS5: HTRF and ITC assays)
  Kd / affinity: low micromolar
C. albicans; Candida albicans, read-out: IC50 (growth dose-response curve)
  IC50: 40 µM
C. albicans; liquid culture, strains expressing WT Bdf1 or mutant Bdf1 inactivated in the first BD
  effect on growth compared to vehicle (DMSO): little effect
C. albicans; strains inactivated in BD2
  effect on growth: significantly compromised
